Measured values: publication PMC5666896, “Molecular Docking and Screening Studies of New Natural Sortase A Inhibitors” (International Journal of Molecular Sciences, 2017)
≈ marks a conversion by molar mass, not a printed value. Entries after “also recorded” stand apart in the source; their conditions may differ.

Legend:
in vivo = settings: in vivo
Method: (§1) The Daphnia magna test was performed in 4 mL 12-tissue culture wells, using 10 daphnids/well, with each sample being tested in duplicate. […] All experiments were conducted in the dark, in a plant growth chamber (Sanyo MLR-351 H, San Diego, CA, USA) at 25 ± 1 °C [32, 33].
(§2) Statistical analysis of the inhibitory effect on SrtA and the Daphnia magna bioassay was performed using GraphPad Prism version 5.01 software (GraphPad Software, Inc., La Jolla, CA, USA). A student’s t-test (p < 0.05) was applied in order to analyze the results obtained from replicates. […] The inhibition (I %) and lethality percentage (L %) values were calculated and plotted against the logarithm of concentrations and the corresponding curves were calculated using the least squares fit method. […] Whenever the obtained results permitted, the upper and lower limits of the 95% confidence interval (95% CI) and the correlation coefficient (r^2) were calculated.

E. faecalis ATCC 29212 = assay: Well diffusion test; type: cell-based; settings: Enterococcus faecalis, ATCC29212; well 6 mm; gentamicin 10 μg, emodin 13.5 μg, rhein 14.2 μg; 37 °C, 24 h; read-out: Diameters of inhibition zone (mm), including diameter of well
Method: (§3) Eight food-related microorganisms were used to evaluate the antimicrobial properties, including the Gram-positive Staphylococcus aureus ATCC 6538, Staphylococcus aureus ATCC 25923, Staphylococcus epidermidis ATCC 12228, Enterococcus faecalis ATCC 29212, Bacillus cereus ATCC 11778, and the Gram-negative Escherichia coli ATCC 8739, Escherichia coli ATCC 35218, and Proteus mirabilis ATCC 29245. The antibacterial assays were performed by the well diffusion and broth microdilution method (ISO 20776-1) in order to determine MIC.
(§4) Test microorganisms were stored in freezing conditions and activated by cultivation in Nutrient broth at 37 °C for 24 h. Overnight cultures were used to obtain the inoculum by transferring an amount of cells from the broth to a test tube containing 5 mL of demineralized water until a turbidity of 1–2 × 10^8 colony-forming unit (CFU)/mL was achieved, equivalent to 0.5 McFarland standard. Dilutions of the inoculum were cultured on nutrient agar supplemented with 5% sheep blood to verify the absence of contamination and the validity of the inoculum.
(§5) Compounds were investigated by the agar well diffusion method. The plates containing Mueller Hinton agar medium were spread with 0.1 mL of the bacterial inoculum. The wells (6 mm diameter) were filled with 50 μL of the sample. The plates were incubated at 37 °C for 24 h. DMSO was used as a negative control and one standard antibiotic (gentamicin, 10 μg) as a positive control. Microbial inhibition was visually appreciated as the diameter of the inhibition zones surrounding the well and recorded in mm. All tests were run in triplicate for each combination of extract and microbial strain [26].

B. cereus ATCC 11778 [1] = assay: Well diffusion test; type: cell-based; settings: Bacillus cereus, ATCC11778; well 6 mm; gentamicin 10 μg, emodin 13.5 μg, rhein 14.2 μg; 37 °C, 24 h; read-out: Diameters of inhibition zone (mm), including diameter of well
Method: as §3, §4, §5

S. aureus ATCC 6538 = assay: Well diffusion test; type: cell-based; settings: Staphylococcus aureus, ATCC6538; well 6 mm; gentamicin 10 μg, emodin 13.5 μg, rhein 14.2 μg; 37 °C, 24 h; read-out: Diameters of inhibition zone (mm), including diameter of well
Method: as §3, §4, §5

S. aureus ATCC 25923 [2] = assay: Well diffusion test; type: cell-based; settings: Staphylococcus aureus, ATCC25923; well 6 mm; gentamicin 10 μg, emodin 13.5 μg, rhein 14.2 μg; 37 °C, 24 h; read-out: Diameters of inhibition zone (mm), including diameter of well
Method: as §3, §4, §5

P. mirabilis ATCC 29245 = assay: Well diffusion test; type: cell-based; settings: Proteus mirabilis, ATCC29245; well 6 mm; gentamicin 10 μg, emodin 13.5 μg, rhein 14.2 μg; 37 °C, 24 h; read-out: Diameters of inhibition zone (mm), including diameter of well
Method: as §3, §4, §5

E. coli ATCC 8739 = assay: Well diffusion test; type: cell-based; settings: Escherichia coli, ATCC8739; well 6 mm; gentamicin 10 μg, emodin 13.5 μg, rhein 14.2 μg; 37 °C, 24 h; read-out: Diameters of inhibition zone (mm), including diameter of well
Method: as §3, §4, §5

E. coli ATCC 35218 = assay: Well diffusion test; type: cell-based; settings: Escherichia coli, ATCC35218; well 6 mm; gentamicin 10 μg, emodin 13.5 μg, rhein 14.2 μg; 37 °C, 24 h; read-out: Diameters of inhibition zone (mm), including diameter of well
Method: as §3, §4, §5

[3] = tested on: S. epidermidis ATCC 12228; assay: Well diffusion test; type: cell-based; settings: Staphylococcus epidermidis, ATCC12228; well 6 mm; gentamicin 10 μg, emodin 13.5 μg, rhein 14.2 μg; 37 °C, 24 h; read-out: Diameters of inhibition zone (mm), including diameter of well
Method: as §3, §4, §5

SrtA [4] = molecular target: T1, SrtA (Staphylococcus aureus, UniProt Q2FV99); assay: Sortase A activity assay (FRET, SensoLyte 520 kit); type: biochemical, S. aureus
T1 construct: purchased Anaspec, San Jose, CA, USA
T1 sequence (Q2FV99 whole entry): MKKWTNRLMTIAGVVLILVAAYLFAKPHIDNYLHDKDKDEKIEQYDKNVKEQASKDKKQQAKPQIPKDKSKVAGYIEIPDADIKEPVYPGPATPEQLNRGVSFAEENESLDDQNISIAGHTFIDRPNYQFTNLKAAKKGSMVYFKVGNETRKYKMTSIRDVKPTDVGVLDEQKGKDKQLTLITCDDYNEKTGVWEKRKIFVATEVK
Method: The inhibitory activity of all of the compounds was determined by quantifying the increase in fluorescence intensity upon a cleavage 5-FAM/QXL® FRET substrate using a SensoLyte® 520 Sortase A Activity Assay Kit (Anaspec, San Jose, CA, USA). According to kit protocol, reactions were performed in a 96-well plate, with each well containing 10 μL test compound solution, 40 μL enzyme solution, and 50 μL sortase substrate solution. All compounds were dissolved in dimethyl sulfoxide (DMSO) and diluted with sterilized distilled water. The final concentration of DMSO was 1%. Each compound diluted in buffer to the tested concentration and was checked for intrinsic fluorescence. According to the kit protocol, we used the enzyme without the test compound as a control, a 1% DMSO control, and a substrate control. We used the kit inhibitor, 4-hydroxymercuribenzoic acid (HMB), as the positive control. Reactions were carried out for 1 h at room temperature and analyzed fluorometrically (SpectraMAX Gemini XS, CA, USA) at Ex/Em = 490 nm/520 nm. All reported values are the means of triplicate assays.

B. cereus ATCC 11778 [5] = assay: Broth microdilution MIC; type: cell-based; settings: Bacillus cereus, ATCC11778; 37 °C, 24 h
Method: (§6) Eight food-related microorganisms were used to evaluate the antimicrobial properties, including the Gram-positive Staphylococcus aureus ATCC 6538, Staphylococcus aureus ATCC 25923, Staphylococcus epidermidis ATCC 12228, Enterococcus faecalis ATCC 29212, Bacillus cereus ATCC 11778, and the Gram-negative Escherichia coli ATCC 8739, Escherichia coli ATCC 35218, and Proteus mirabilis ATCC 29245. The antibacterial assays were performed by the well diffusion and broth microdilution method (ISO 20776-1) in order to determine MIC. Test microorganisms were stored in freezing conditions and activated by cultivation in Nutrient broth at 37 °C for 24 h. […] Dilutions of the inoculum were cultured on nutrient agar supplemented with 5% sheep blood to verify the absence of contamination and the validity of the inoculum. Bacterial strains susceptible to compounds in the well diffusion assay were studied for their MIC values using 96-well microtiter plates. The experiments were conducted using the reference method for testing the in vitro activity of the antimicrobial agents where MIC is the lowest concentration of an antimicrobial agent that, under defined in vitro conditions, prevents the appearance of visible growth of the microorganism after its incubation overnight. A total of 250 μL of the bacterial suspension in sterile demineralized water was added to 11 mL Mueller-Hinton broth (MBH) to a concentration of 5 × 10^7 cells/mL. Compounds to be investigated were dissolved in MBH containing bacterial inoculum (5 × 10^4 CFU/well) to achieve the two-fold serial concentrations ranging between […] [30]. The microplates were covered with an adhesive seal and incubated at 37 °C for 24 h. DMSO combined with MHB was used as the negative control for each bacterial strain. The plates were visually read under normal laboratory lighting using a manual mirror viewer. Two replicates were conducted for each compound and each bacterial strain.

S. aureus ATCC 25923 [6] = assay: Broth microdilution MIC; type: cell-based; settings: Staphylococcus aureus, ATCC25923; 37 °C, 24 h
Method: as §6

[7] = tested on: S. epidermidis ATCC 12228; assay: Broth microdilution MIC; type: cell-based; settings: Staphylococcus epidermidis, ATCC12228; 37 °C, 24 h
Method: as §6

tested bacteria strains = assay: Preliminary antibacterial screening by well diffusion test; type: cell-based; settings: eight strains
Method: as §3, §4
Compounds were investigated by the agar well diffusion method. The plates containing Mueller Hinton agar medium were spread with 0.1 mL of the bacterial inoculum. […] Microbial inhibition was visually appreciated as the diameter of the inhibition zones surrounding the well and recorded in mm. […]

Daphnia magna = assay: in vivo; settings: after 48 h; tested 0.5 to 100 μM
Method: as §1, §2

[8] = Solubility in water (observation during FRET testing)
SrtA [9] = molecular target: T1, SrtA; settings: cited from earlier work

Compound: Cc1cc(O)c2c(c1)C(=O)c1cc(O)cc(O)c1C2=O [Emodin]
- LC50 at 24 h (in vivo): 34.7 µM
- LC50 at 48 h (in vivo): 24.2 µM
- zone of inhibition at 13.5 µg/disc (E. faecalis ATCC 29212): 6 mm
- zone of inhibition at 13.5 µg/disc (B. cereus ATCC 11778 [1]): 12 mm
- zone of inhibition at 13.5 µg/disc (S. aureus ATCC 6538): 6 mm
- zone of inhibition at 13.5 µg/disc (S. aureus ATCC 25923 [2]): 20 mm
- zone of inhibition at 13.5 µg/disc (P. mirabilis ATCC 29245): 6 mm
- zone of inhibition at 13.5 µg/disc (E. coli ATCC 8739): 6 mm
- zone of inhibition at 13.5 µg/disc (E. coli ATCC 35218): 6 mm
- zone of inhibition at 13.5 µg/disc [3]: 14 mm
- SrtA inhibition (result in words) (SrtA [4]): statistically significant SrtA inhibition
- inhibition at 100 µM (SrtA [4]): 10.1%
- MIC (B. cereus ATCC 11778 [5]): 16 µg/mL (≈ 59.2 µM)
- MIC (S. aureus ATCC 25923 [6]): 8 µg/mL (≈ 29.6 µM)
- MIC [7]: 8 µg/mL (≈ 29.6 µM)
- Antimicrobial effect (result in words) (tested bacteria strains): observable antimicrobial effect

Compound: CNC(C)C1CCC(N)C(OC2C(N)CC(N)C(OC3OCC(C)(O)C(NC)C3O)C2O)O1 (centres unmarked) [Gentamicin, reference compound]
- zone of inhibition at 10 µg/disc (E. faecalis ATCC 29212): 12 mm
- zone of inhibition at 10 µg/disc (B. cereus ATCC 11778 [1]): 24 mm
- zone of inhibition at 10 µg/disc (S. aureus ATCC 6538): 17 mm
- zone of inhibition at 10 µg/disc (S. aureus ATCC 25923 [2]): 21 mm
- zone of inhibition at 10 µg/disc (P. mirabilis ATCC 29245): 20 mm
- zone of inhibition at 10 µg/disc (E. coli ATCC 8739): 21 mm
- zone of inhibition at 10 µg/disc (E. coli ATCC 35218): 20 mm
- zone of inhibition at 10 µg/disc [3]: 29 mm
- MIC (B. cereus ATCC 11778 [5]): 4 µg/mL (≈ 8.38 µM)
- MIC (S. aureus ATCC 25923 [6]): 2 µg/mL (≈ 4.19 µM)
- MIC [7]: 2 µg/mL (≈ 4.19 µM)

Compound: O=c1c(O)c(-c2ccc(O)c(O)c2)oc2cc(O)cc(O)c12 [Quercetin]
- Maximum lethality (Daphnia magna): ≤ 30%
- SrtA inhibition (result in words) (SrtA [4]): statistically significant SrtA inhibition
- inhibition at 10 µM (SrtA [4]): 8.55%
- Solubility in water (result in words) [8]: low solubility in water; also recorded: very low solubility in water
- Inhibition of SrtA enzymatic activity (result in words) (SrtA [9]): proven to inhibit SrtA enzymatic activity

Compound: O=C(O)c1cc(O)c2c(c1)C(=O)c1cccc(O)c1C2=O [Rhein]
- zone of inhibition at 14.2 µg/disc (E. faecalis ATCC 29212): 6 mm
- zone of inhibition at 14.2 µg/disc (B. cereus ATCC 11778 [1]): 15 mm
- zone of inhibition at 14.2 µg/disc (S. aureus ATCC 6538): 6 mm
- zone of inhibition at 14.2 µg/disc (S. aureus ATCC 25923 [2]): 12 mm
- zone of inhibition at 14.2 µg/disc (P. mirabilis ATCC 29245): 6 mm
- zone of inhibition at 14.2 µg/disc (E. coli ATCC 8739): 6 mm
- zone of inhibition at 14.2 µg/disc (E. coli ATCC 35218): 6 mm
- zone of inhibition at 14.2 µg/disc [3]: 30 mm
- SrtA inhibition (result in words) (SrtA [4]): statistically significant SrtA inhibition
- inhibition at 10 µM (SrtA [4]): 7.01%
- MIC (B. cereus ATCC 11778 [5]): 32 µg/mL (≈ 113 µM)
- MIC (S. aureus ATCC 25923 [6]): 64 µg/mL (≈ 225 µM)
- MIC [7]: 16 µg/mL (≈ 56.3 µM)
- Solubility in water (result in words) [8]: low solubility in water
- Antimicrobial effect (result in words) (tested bacteria strains): observable antimicrobial effect
